# From patent US11072634B2, “Inhibitors of transglutaminases” (Zedira GmbH, priority 2016, dated 2021)
# *1 amine or outer side, *2 acyl side, *3 side chain or, on linkers, in order; H or OH if unused. Where a SMILES comes first, the peptide text is derived from it. [ ]: non-standard residue; d: D form. The star is where a group is joined. Nle(5,6-dioxo,6-NHMe) = CNC(=O)C(=O)CC[C@H](N)C(=O)O; X7 = O=C(CC[C@H](N[*:1])C(=O)[*:2])C(=O)NCc1ccccc1; X1 = CCCCCNC(=O)C(=O)CC[C@H](N[*:1])C(=O)[*:2]; Isonicotinoyl(3-COOH) = O=C(O)c1cnccc1C(=O)*; DON = [N-]=[N+]=CC(=O)CC[C@H](N)C(=O)O; Pro(4-oxo) = O=C1CN[C@H](C(=O)O)C1; Chg = N[C@H](C(=O)O)C1CCCCC1; Tle = CC(C)(C)[C@H](N)C(=O)O; Nle = CCCC[C@H](N)C(=O)O; Cbz = O=C(OCc1ccccc1)*
# Legend:
# [1] = molecular target: T1, recombinant human factor XIII A-subunit (rhFXIII-A, plasma transglutaminase) (Homo sapiens, UniProt P00488); experiment: Inhibition of rec. human coagulation factor XIII (fluorescence, Abz-NE(CAD-DNP)EQVSPLILLK-OH); type: biochemical; conditions: Table 3, FXIII inhibitors; read-out: IC50 FXIII
# T1 construct: His6; purchased Zedira 1027 (so in the source); T027)
# T1 sequence (P00488 39-732 limits assumed): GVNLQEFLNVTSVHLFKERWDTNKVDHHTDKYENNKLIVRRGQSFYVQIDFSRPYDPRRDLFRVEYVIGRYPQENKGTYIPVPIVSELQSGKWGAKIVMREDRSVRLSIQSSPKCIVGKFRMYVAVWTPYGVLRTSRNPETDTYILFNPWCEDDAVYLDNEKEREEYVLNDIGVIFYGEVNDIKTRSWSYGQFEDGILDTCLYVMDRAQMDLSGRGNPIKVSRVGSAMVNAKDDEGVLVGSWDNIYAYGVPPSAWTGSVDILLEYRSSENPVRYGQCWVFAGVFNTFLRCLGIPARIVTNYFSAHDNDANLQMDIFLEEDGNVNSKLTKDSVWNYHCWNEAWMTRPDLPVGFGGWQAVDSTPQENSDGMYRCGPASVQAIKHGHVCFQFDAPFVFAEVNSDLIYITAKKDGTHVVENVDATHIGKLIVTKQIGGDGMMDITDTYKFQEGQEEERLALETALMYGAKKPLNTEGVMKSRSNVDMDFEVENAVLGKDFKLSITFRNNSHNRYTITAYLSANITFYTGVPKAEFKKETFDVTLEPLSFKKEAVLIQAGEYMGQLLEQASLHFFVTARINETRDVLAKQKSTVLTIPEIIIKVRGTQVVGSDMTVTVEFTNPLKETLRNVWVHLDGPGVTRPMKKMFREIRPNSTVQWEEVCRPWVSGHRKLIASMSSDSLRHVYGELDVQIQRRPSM
# Protocol: Method for Inhibition Studies of Rec. Human Coagulation Factor XIII (Plasma Transglutaminase, rhFXIII-A)
# (§1) 50 μg lyophilized His-tagged recombinant human factor XIII A-subunit (His6-rhFXIII, Zedira product 1027) is reconstituted in H2O (volume depends on original volume before lyophilization) resulting in a buffer containing 20 mM Tris-HCl, 150 mM NaCl, 1 mM EDTA, 1 mM DTT, 189 mg/ml maltodextrin, pH=7.5. The rhFXIII stock solution is diluted in buffer (50 mM Tris-HCl, 7.5 mM CaCl2, 150 mM NaCl, pH=7.4) to give a working solution of 59 U/ml (based on the amine-incorporation activity measured using transglutaminase activity assay #1036 (Zedira GmbH), described below).
# (§2) A 10 mM inhibitor stock solution is prepared in DMSO, and from this a serial 1:2-fold dilution series is prepared also in DMSO. Each of the initial dilutions is subsequently diluted 1:50-fold with buffer (50 mM Tris-HCl, 7.5 mM CaCl2, 150 mM NaCl, pH=7.4) to yield the final working dilutions containing 2% (v/v) DMSO.
# (§3) 15 μl of inhibitor working dilution are added per well of a 96 well microtiter plate. As control, 15 μl of a 2% (v/v) DMSO solution prepared using the buffer mentioned above are added per well.
# (§4) 480 μl of His6-rhFXIII working solution and 120 μl human alpha thrombin (0.5 NIH units/μl) are added to 10.8 ml assay buffer (50 mM Tris-HCl, 7.5 mM CaCl2, 150 mM NaCl, 5 mM DTT, 13.4 mM glycine methylester, 50 μM Abz-NE(CAD-DNP)EQVSPLILLK-OH, (Zedira product A101; patent No.: EP 1781807B1), pH=7.4). From this master-mix solution, 285 μl are added per well containing the inhibitor. Increase in fluorescence is measured using […] and λem=418 nm at 37° C. for 35 min. A slope of the increase in fluorescence between 20 and 30 min is calculated for determination of the IC50 value (inhibitor concentration at which 50% of the initial FXIII activity is blocked).
# (§5) Analysis of enzymatic activity is performed by calculation of the slope of an increase in fluorescence intensity. IC50 values are calculated by plotting the enzymatic activity (as percentage from control containing 2% DMSO instead of inhibitor) against the inhibitor concentration. IC50 is defined as the inhibitor concentration blocking 50%) of initial enzyme activity.
# TG2 = molecular target: T2, TG2 (Homo sapiens, UniProt P21980); experiment: FXIII assay format using TG2 instead of FXIII (selectivity of FXIIIa blockers); type: biochemical; conditions: Table 3, selectivity with respect to TG2; read-out: IC50 TG2
# T2 sequence (P21980 1-687): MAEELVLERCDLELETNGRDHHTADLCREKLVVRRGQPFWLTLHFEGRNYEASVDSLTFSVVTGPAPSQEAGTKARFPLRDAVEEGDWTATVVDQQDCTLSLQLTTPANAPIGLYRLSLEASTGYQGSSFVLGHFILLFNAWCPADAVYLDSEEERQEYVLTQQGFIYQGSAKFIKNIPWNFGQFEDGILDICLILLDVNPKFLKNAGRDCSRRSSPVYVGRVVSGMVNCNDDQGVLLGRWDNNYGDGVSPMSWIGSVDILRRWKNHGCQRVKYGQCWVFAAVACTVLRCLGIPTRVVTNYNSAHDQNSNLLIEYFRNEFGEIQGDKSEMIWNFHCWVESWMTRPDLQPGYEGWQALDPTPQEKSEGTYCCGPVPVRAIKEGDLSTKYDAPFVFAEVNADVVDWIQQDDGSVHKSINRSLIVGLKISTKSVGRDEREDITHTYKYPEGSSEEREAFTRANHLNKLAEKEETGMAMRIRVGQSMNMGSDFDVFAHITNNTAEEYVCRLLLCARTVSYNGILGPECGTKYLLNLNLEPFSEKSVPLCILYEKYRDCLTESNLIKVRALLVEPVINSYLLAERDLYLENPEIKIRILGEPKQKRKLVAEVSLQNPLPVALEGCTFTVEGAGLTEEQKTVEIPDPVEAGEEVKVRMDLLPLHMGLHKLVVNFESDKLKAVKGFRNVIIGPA
# Protocol: as §1, §2, §3, §4
# This assay was also used to determine selectivity of inhibitors preferentially blocking FXIIIa by using TG2 instead of FXIII.
# as §5
# [2] = system: fresh citrated whole blood; experiment: Thromboelastometry (ROTEM delta) in whole blood with t-PA; conditions: human whole blood; for reduction of maximum clot firmness (MCF) compared to control (K): 6.25-50 μM, with t-PA; for clot lysis at 60 minutes (LI60): in the presence of 0.02% t-PA
# Protocol: Thromboelastometry is a visco-elastic method for the assessment of blood coagulation. In whole blood parameters like clotting time (CT), clot formation time (CFT), maximum clot firmness (MCF) and lysis index at 60 min (LI60) were obtained using the ROTEM® delta device according to the manufacturer.
# Briefly, 20 μL star-TEM® (0.2 mol/l CaCl2), 20 μL r ex-TEM® (recombinant tissue factor, phospholipids, heparin inhibitor), 10 μL inhibitor stock solution (1.8-0.23 mM), combined with 10 μL t-PA stock solution (0.72 μg/ml) to yield concentrations of 0.9-0.11 mM in 18% DMSO/PBS with 0.36 μg/ml t-PA and 300 μL fresh citrated whole blood (human, from healthy consenting donors) were mixed in a disposable cuvette. As control the inhibitor stock solution was replaced by 36% DMSO/0.36 μg/ml t-PA in PBS.
# [3] = system: CaCo2 (human colon carcinoma cell line); experiment: Cell Proliferation ELISA, BrdU; type: cell-based
# Protocol: (§6) The following cell lines are used for determination of cytotoxicity: • CaCo2 (human colon carcinoma cell line) • Huh7 (human liver carcinoma cell line).
# (§7) Cells are cultivated in DMEM/10% FCS at 37° C. and 5% CO2 in a 96 well plate with an initial seeding density of 2×10^4 cells/well.
# (§8) Transglutaminase inhibitors are added to the cells with final concentrations from 0.1 μM to 1 mM one hour after seeding. The different inhibitor dilutions are prepared in DMSO, resulting in a final concentration of 1% (v/v) DMSO in every well (2 μl inhibitor in 200 μl cell culture medium). Cycloheximide (2.5 μg/ml) and Camptothecin (0.2 μg/ml) are used as control compounds. All measurements are performed in triplicates.
# (§9) Determination of proliferation using Cell Proliferation ELISA, BrdU (Roche, Cat. No. 11647229001).
# (§10) After 24 h of incubation with inhibitors or controls, BrdU is added to the cells. After further incubation for 18 h, the cells are fixed and cellular DNA becomes denatured. A monoclonal antibody (conjugated with peroxidase) raised against BrdU is added to the wells and binds to BrdU which is incorporated into the DNA. Substrate solution is added and absorbance at 450 nm is recorded. Further analysis is performed according to the manufacturer's protocol.
# [4] = system: Huh7 (human liver carcinoma cell line); experiment: Cell Proliferation ELISA, BrdU; type: cell-based
# Protocol: as §6, §7, §8, §9, §10
# [5] = system: CaCo2 (human colon carcinoma cell line); experiment: Metabolic activity, EZ4U-Assay; type: cell-based
# Protocol: as §6, §7, §8
# (§11) Determination of metabolic activity using EZ4U-Assay (Biomedica, Cat. No. BI-5000).
# (§12) After 48 h of incubation with inhibitors or controls, the tetrazolium substrate is added to the cells. Substrate turnover by the cells is measured over two hours at 450 nm (using 630 nm was reference wavelength).
# [6] = system: Huh7 (human liver carcinoma cell line); experiment: Metabolic activity, EZ4U-Assay; type: cell-based
# Protocol: as §6, §7, §8, §11, §12
# CaCo2 and Huh7 cells = experiment: Cytotoxicity of transglutaminase inhibitors (BrdU and EZ4U); type: cell-based, human; conditions: BrdU and EZ4U, depending on the cell type
# Protocol: as §6, §7, §8
# Cytotoxicity of transglutaminase inhibitors is evaluated with two different assays:
# as §9
# After 24 h of incubation with inhibitors or controls, BrdU is added to the cells. After further incubation for 18 h, the cells are fixed and cellular DNA becomes denatured. […] Substrate solution is added and absorbance at 450 nm is recorded. […]
# as §12
Compound,IC50 [1],IC50 (TG2),reduction of maximum clot firmness (MCF) compared to control (K) [2],clot lysis at 60 minutes (LI60) [2],"Cytotoxicity concentration (>10% deviation from negative control), BrdU, Caco2 [3]","Cytotoxicity concentration (>10% deviation from negative control), BrdU, Huh-7 [4]","Cytotoxicity concentration (>10% deviation from negative control), EZ4U, Caoo2 [5]","Cytotoxicity concentration (>10% deviation from negative control), EZ4U, Huh-7 [6]",concentration at which cytotoxic (reduced cell proliferation and metabolic activity) (CaCo2 and Huh7 cells)
"CNC(=O)C(=O)CC[C@H](NC(=O)c1ccncc1C(=O)O)C(=O)N[C@H](C(=O)N1CC(=O)C[C@H]1C(=O)N[C@H](C(=O)N[C@H](C(N)=O)C1CCCCC1)C1CCCCC1)C(C)(C)C [Compound E25, 4-((S)-1-((S)-1-((S)-2-((S)-2-((S)-2-amino-1-cyclonexyl-2-oxoethylamino)-1-cyclonexyl-2-oxoethylcarbamoyl)-4-oxopyrrolidin-1-yl)-3,3-dimethyl-1-oxobutan-2-ylamino)-6-(methylamino)-1,5,6-trioxohexan-2-ylcarbamoyl)nicotinic acid] ({Isonicotinoyl(3-COOH)}-[Nle(5,6-dioxo,6-NHMe)][Tle][Pro(4-oxo)][Chg][Chg]-NH2)",50 nM,5500 nM,dose dependent influence,dose dependent influence,–,–,–,–,–
"COC(=O)[C@H](CC(C)C)NC(=O)[C@@H]1CCCN1C(=O)[C@@H](NC(=O)[C@H](CCC(=O)C=[N+]=[N-])NC(=O)OCc1ccccc1)C(C)C [Compound Z006, Z-DON-VPL-OMe, reference compound] (Cbz-[DON]VPL-OMe)",–,–,–,–,250 µM,125 µM,500 µM,125 µM,125 µM
"CC(C)(C)[C@H](NC(=O)[C@H](CCC(=O)C(=O)NCc1ccccc1)NC(=O)c1ccncc1C(=O)O)C(=O)N1CC(=O)C[C@H]1C(=O)N[C@H](C(=O)N[C@H](C(N)=O)C1CCCCC1)C1CCCCC1 [Compound E29, 4-((S)-1-((S)-1-((S)-2-((S)-2-((S)-2-amino-1-cyclohexyl-2-oxoethylamino)-1-cyclohexyl-2-oxoethylcarbamoyl)-4-oxopyrrolidin-1-yl)-3,3-dimethyl-1-oxobutan-2-ylamino)-6-(benzylamino)-1,5,6-trioxohexan-2-ylcarbamoyl)nicotinic acid] ({Isonicotinoyl(3-COOH)}-[X7][Tle][Pro(4-oxo)][Chg][Chg]-NH2)",850 nM,> 20000 nM,–,–,–,–,–,–,–
"CCCCCNC(=O)C(=O)CC[C@H](NC(=O)c1ccncc1C(=O)O)C(=O)N[C@H](C(=O)N1CC(=O)C[C@H]1C(=O)N[C@H](C(=O)N[C@H](C(N)=O)C1CCCCC1)C1CCCCC1)C(C)(C)C [Compound E27, 4-((S)-1-((S)-1-((S)-2-((S)-2-((S)-2-amino-1-cyclohexyl-2-oxoethylamino)-1-cyclohexyl-2-oxoethylcarbamoyl)-4-oxopyrrolidin-1-yl)-3,3-dimethyl-1-oxobutan-2-ylamino)-6-1,5,6-trioxo-6-(pentylamino)hexan-2-ylcarbamoyl)nicotinic acid] ({Isonicotinoyl(3-COOH)}-[X1][Tle][Pro(4-oxo)][Chg][Chg]-NH2)",60 nM,7800 nM,dose dependent influence,dose dependent influence,–,–,–,–,–
"CCCC[C@H](NC(=O)[C@H](CCC(=O)C(=O)NC)NC(=O)CNC(=O)[C@@H]1CCCN1C(=O)CNC(=O)[C@H](CC(C)C)NC(C)=O)C(=O)N[C@H](C(=O)N[C@@H](CC(C)C)C(=O)N1CCC[C@H]1C(=O)N[C@@H](Cc1c[nH]c2ccccc12)C(N)=O)[C@@H](C)CC [Compound E37, (S)-2-(2-((S)-1-(2-((S)-2-acetamido-4-methylpentanamido)acetyl)pyrrolidine-2-carboxamido)acetamido)-N1-((S)-1-((2S,3S)-1-((S)-1-((S)-2-((S)-1-amino-3-(1H-indol-3-yl)-1-oxopropan-2-ylcarbamoyl)pyrrolidin-1-yl)-4-methyl-1-oxopentan-2-ylamino)-3-methyl-1-oxopentan-2-ylamino)-1-oxohexan-2-yl)-N6-methyl-5-oxohexanediamide] (Ac-LGPG[Nle(5,6-dioxo,6-NHMe)][Nle]ILPW-NH2)",2500 nM,390 nM,–,–,–,–,–,–,–
